Experimental data reported in patent publication US20090111837A1, “USE OF PDE7 INHIBITORS FOR THE TREATMENT OF NEUROPATHIC PAIN” (priority 2005, published 2009).

Columns and labels:
[1] = test system: CCI-induced static allodynia; assay: Static allodynia (von Frey hairs) in the chronic constriction injury (CCI) rat model of neuropathic pain; type: in vivo
Protocol: Male Sprague Dawley rats weighing 150-400 g obtained from Charles River (Manston, Kent, UK.) were housed in groups of 4. All animals were kept under a 12 h light/dark cycle (lights on at 07 h 00 min) with food and water ad libitum. All experiments were carried out by an observer blind to the treatments and in accordance with the Home Office Animals (Scientific Procedures) Act 1986.
The CCI of sciatic nerve was performed as previously described by Bennett and Xie (Bennett G J, Xie Y K. A peripheral mononeuropathy in rat that produces disorders of pain sensation like those seen in man. Pain: 33:87-107, 1988). Animals were anaesthetised with a 2% isofluorane/O2 mixture. The right hind thigh was shaved and swabbed with 1% iodine. Animals were then transferred to a homeothermic blanket for the duration of the procedure and anaesthesia maintained during surgery via a nose cone. The skin was cut along the line of the thighbone. The common sciatic nerve was exposed at the middle of the thigh by blunt dissection through biceps femoris. About 7 mm of nerve was freed proximal to the sciatic trifurcation, by inserting forceps under the nerve and the nerve gently lifted out of the thigh. Suture was pulled under the nerve using forceps and tied in a simple knot until slight resistance was felt and then double knotted. The procedure was repeated until 4 ligatures (4-0 silk) were tied loosely around the nerve with approx 1 mm spacing. The incision was closed in layers.
Animals were habituated to wire bottom test cages prior to the assessment of allodynia. Static allodynia was evaluated by application of von Frey hairs (Stoelting, Wood Dale, Ill., USA.) in ascending order of force (0.6, 1, 1.4, 2, 4, 6, 8, 10, 15 and 26 grams) to the plantar surface of hind paws. Each von Frey hair was applied to the paw for a maximum of 6 sec, or until a withdrawal response occurred. Once a withdrawal response to a von Frey hair was established, the paw was re-tested, starting with the filament below the one that produced a withdrawal, and subsequently with the remaining filaments in descending force sequence until no withdrawal occurred. The highest force of 26 g lifted the paw as well as eliciting a response, thus represented the cut off point. Each animal had both hind paws tested in this manner. The lowest amount of force required to elicit a response was recorded as paw withdrawal threshold (PWT) in grams. Static allodynia was defined as present if animals responded to a stimulus of, or less than, 4 g, which is innocuous in naive rats (Field M J, Bramwell S, Hughes J, Singh L. Detection of static and dynamic components of mechanical allodynia in rat models of neuropathic pain: are they signalled by distinct primary sensory neurones? Pain, 1999; 83:303-11).
All the experiments were conducted in blind. When the experiment was carried out in more then one day and where technically possible, all groups occurred on each day with equal replication. Static allodynia was expressed as median [LQ; UQ] and analysed by Mann Whitney U test. Dynamic allodynia was expressed as arithmetic mean±SEM and analysed by ANOVA.

[2] = test system: CCI-induced dynamic allodynia; assay: Dynamic allodynia (cotton bud stroking) in the chronic constriction injury (CCI) rat model of neuropathic pain; type: in vivo
Protocol: Male Sprague Dawley rats weighing 150-400 g obtained from Charles River (Manston, Kent, UK.) were housed in groups of 4. All animals were kept under a 12 h light/dark cycle (lights on at 07 h 00 min) with food and water ad libitum. All experiments were carried out by an observer blind to the treatments and in accordance with the Home Office Animals (Scientific Procedures) Act 1986. The CCI of sciatic nerve was performed as previously described by Bennett and Xie (Bennett G J, Xie Y K. A peripheral mononeuropathy in rat that produces disorders of pain sensation like those seen in man. Pain: 33:87-107, 1988). Animals were anaesthetised with a 2% isofluorane/O2 mixture. The right hind thigh was shaved and swabbed with 1% iodine. Animals were then transferred to a homeothermic blanket for the duration of the procedure and anaesthesia maintained during surgery via a nose cone. The skin was cut along the line of the thighbone. The common sciatic nerve was exposed at the middle of the thigh by blunt dissection through biceps femoris. About 7 mm of nerve was freed proximal to the sciatic trifurcation, by inserting forceps under the nerve and the nerve gently lifted out of the thigh. Suture was pulled under the nerve using forceps and tied in a simple knot until slight resistance was felt and then double knotted. The procedure was repeated until 4 ligatures (4-0 silk) were tied loosely around the nerve with approx 1 mm spacing. The incision was closed in layers. Dynamic allodynia was assessed by lightly stroking the plantar surface of the hind paw with a cotton bud. To avoid recording general motor activity, care was taken to perform this procedure in fully habituated rats that were not active. At least two measurements were taken at each time point, the mean of which represented the paw withdrawal latency (PWL). […] A pain withdrawal response was often accompanied with repeated flinching or licking of the paw. Dynamic allodynia was considered to be present if animals responded to the cotton stimulus within 8 sec of commencing stroking (Field et al, 1999). All the experiments were conducted in blind. When the experiment was carried out in more then one day and where technically possible, all groups occurred on each day with equal replication. Static allodynia was expressed as median [LQ; UQ] and analysed by Mann Whitney U test. Dynamic allodynia was expressed as arithmetic mean±SEM and analysed by ANOVA.

[3] = CCI rats, PO, 0.3, 1 and 3 mg/kg
[4] = CCI rats, PO, post administration
[5] = CCI rats, oral (PO), doses 0.3, 1 and 3 mg/kg
[6] = highest dose (3 mg/kg PO) vs gabapentin 100 mg/kg PO
[7] = highest dose (3 mg/kg PO), post dose, p<0.01 vs vehicle

O=C(O)CCCOc1ccc(Cl)c2c1C1(CCCCC1)NC(=O)N2 [5′-(3-(Carboxy)propoxy)-8′-chlorospiro[cyclohexane-1,4′-quinazolin]-2′(1′H)-one]
effect on CCI-induced static allodynia [1, 3]: reversed the maintenance of CCI-induced static and dynamic allodynia in a dose dependent manner
time of peak effect, static allodynia [1, 4]: 1 h
MED for static allodynia [1, 5]: 1 mg/kg
static allodynia reversal, curve profile versus gabapentin [1, 6]: comparable to gabapentin
onset of anti-allodynic effect, static allodynia [1, 7]: 30 min
effect on CCI-induced dynamic allodynia [2, 3]: reversed the maintenance of CCI-induced static and dynamic allodynia in a dose dependent manner
time of peak effect, dynamic allodynia [2, 4]: 1 h
MED for dynamic allodynia [2, 5]: 3 mg/kg
dynamic allodynia effect versus gabapentin [2, 6]: less potent but significantly different from vehicle treated CCI rats
dynamic allodynia, paw withdrawal latency (mean±SEM) ([2]; highest dose (3 mg/kg PO), 1 hrs post administration, vehicle treated CCI rats 3.7±0.7, latency recorded in sec, in s): 10.2±1.4
onset of anti-allodynic effect, dynamic allodynia [2, 7]: 30 min
